Data published in patent US9567302B2, “Carbamate compounds and of making and using same” (Abide Therapeutics, Inc., priority 2012, dated 2017).

How the values were obtained:
Type in all cases: biochemical
Design in all cases: from tissue; host or cells: mouse brain membrane fraction
Conditions in all cases: Table 1, mouse proteome, 30 min preincubation at 37° C.
[1] = target: T1, MAGL (Mus musculus, UniProt O35678); assay: In vitro competitive activity-based protein profiling (FP-Rh), mouse MAGL
T1 sequence (O35678 1-303): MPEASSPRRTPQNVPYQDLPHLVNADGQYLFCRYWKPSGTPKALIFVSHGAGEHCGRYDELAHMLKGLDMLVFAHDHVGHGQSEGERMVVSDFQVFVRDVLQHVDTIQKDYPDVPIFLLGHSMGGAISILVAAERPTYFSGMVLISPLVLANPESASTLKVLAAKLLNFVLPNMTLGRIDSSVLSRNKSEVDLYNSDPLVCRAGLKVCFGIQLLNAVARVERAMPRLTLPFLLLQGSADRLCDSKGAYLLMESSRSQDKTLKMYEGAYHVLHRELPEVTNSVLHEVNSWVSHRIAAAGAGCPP
Protocol: (§1) In Vitro Competitive Activity-Based Protein Profiling.
(§2) Proteomes (mouse brain membrane fraction or cell lysates) (50 μL, 1.0 mg/ml total protein concentration) were preincubated with varying concentrations of inhibitors at 37° C. After 30 min, FP-Rh (1.0 μL, 50 μM in DMSO) was added and the mixture was incubated for another 30 min at 37° C. Reactions were quenched with SDS loading buffer (50 μL—4×) and run on SDS-PAGE.

[2] = target: T2, FAAH (Mus musculus, UniProt O08914); assay: In vitro competitive activity-based protein profiling (FP-Rh), mouse FAAH
T2 sequence (O08914 1-579): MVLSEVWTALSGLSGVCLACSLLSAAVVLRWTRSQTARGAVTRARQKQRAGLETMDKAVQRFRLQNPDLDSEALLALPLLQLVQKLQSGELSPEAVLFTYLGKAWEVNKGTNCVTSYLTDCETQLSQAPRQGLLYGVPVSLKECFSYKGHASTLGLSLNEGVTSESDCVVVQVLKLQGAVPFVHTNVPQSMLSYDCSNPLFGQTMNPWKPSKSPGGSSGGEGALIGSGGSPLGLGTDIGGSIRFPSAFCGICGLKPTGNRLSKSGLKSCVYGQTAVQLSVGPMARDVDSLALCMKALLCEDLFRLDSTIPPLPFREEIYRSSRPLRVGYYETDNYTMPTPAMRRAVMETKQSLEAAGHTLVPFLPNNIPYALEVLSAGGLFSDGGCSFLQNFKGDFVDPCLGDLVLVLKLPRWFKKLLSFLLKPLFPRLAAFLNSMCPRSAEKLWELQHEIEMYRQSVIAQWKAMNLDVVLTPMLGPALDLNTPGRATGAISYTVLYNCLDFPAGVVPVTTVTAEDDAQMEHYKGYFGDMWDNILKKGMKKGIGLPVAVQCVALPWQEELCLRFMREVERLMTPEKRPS
Protocol: as §1, §2

[3] = target: T3, ABHD6 (Mus musculus, UniProt Q8R2Y0); assay: In vitro competitive activity-based protein profiling (FP-Rh), mouse ABHD6
T3 sequence (Q8R2Y0 1-336): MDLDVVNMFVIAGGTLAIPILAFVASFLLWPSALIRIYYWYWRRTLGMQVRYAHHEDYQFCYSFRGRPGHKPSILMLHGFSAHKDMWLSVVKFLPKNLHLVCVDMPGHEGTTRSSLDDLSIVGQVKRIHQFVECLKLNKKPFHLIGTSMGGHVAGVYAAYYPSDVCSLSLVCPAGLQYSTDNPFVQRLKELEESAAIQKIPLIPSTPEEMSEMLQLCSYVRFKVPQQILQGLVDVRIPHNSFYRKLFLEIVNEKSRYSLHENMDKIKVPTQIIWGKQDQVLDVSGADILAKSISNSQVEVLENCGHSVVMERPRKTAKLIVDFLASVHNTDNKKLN
Protocol: as §1, §2

Structure (SMILES) | IC50 [1] [nM] | IC50 [2] [nM] | IC50 [3] [nM]
C#CCCCCNC(=O)ON1C(=O)CCC1=O [Example 28, 2,5-Dioxopyrrolidin-1-yl N-(hex-5-yn-1-yl)carbamate] | > 10000 | 1000 to 10000 | 1000 to 10000
O=C(ON1C(=O)CCC1=O)N1CCCC1 [Example 29, 2,5-Dioxopyrrolidin-1-yl pyrrolidine-1-carboxylate] | > 10000 | > 10000 | > 10000
O=C(ON1C(=O)CCC1=O)N1CCC1 [Example 30, 2,5-Dioxopyrrolidin-1-yl azetidine-1-carboxylate] | > 10000 | > 10000 | > 10000
CCCCCCCC/C=C\CCCCCCCCNC(=O)ON1C(=O)CCC1=O [Example 31, 2,5-Dioxopyrrolidin-1-yl N-[(9Z)-octadec-9-en-1-yl]carbamate] | 1000 to 10000 | 1000 to 10000 | 1000 to 10000
O=C(ON1C(=O)c2ccccc2C1=O)N1CCC(CCc2ccc(Cl)cc2)CC1 [Example 32, 1,3-Dioxo-2,3-dihydro-1H-isoindol-2-yl 4-[2-(4-chlorophenyl)ethyl]piperidine-1-carboxylate] | 1000 to 10000 | < 100 | < 100
O=C(ON1C(=O)c2ccccc2C1=O)N1CCN(C(c2ccc(Cl)cc2)c2ccc(Cl)cc2)CC1 [Example 33, 1,3-Dioxo-2,3-dihydro-1H-isoindol-2-yl 4-[bis(4-chlorophenyl)methyl]piperazine-1-carboxylate] | > 10000 | > 10000 | 100 to 1000
COc1ccc(N2CCN(C(=O)ON3C(=O)c4ccccc4C3=O)CC2)cc1 [Example 34, 1,3-Dioxo-2,3-dihydro-1H-isoindol-2-yl 4-(4-methoxyphenyl)piperazine-1-carboxylate] | > 10000 | 100 to 1000 | < 100

Next, values leading:

IC50 [1] [nM] | IC50 [2] [nM] | IC50 [3] [nM] | Structure (SMILES)
> 10000 | > 10000 | > 10000 | O=C(ON1C(=O)CCC1=O)N1CCOCC1 [Example 38, 2,5-Dioxopyrrolidin-1-yl morpholine-4-carboxylate]
1000 to 10000 | > 10000 | 1000 to 10000 | CC1(C)CC(=O)N(OC(=O)N2CCN(C(c3ccc(Cl)cc3)c3ccc(Cl)cc3)CC2)C1=O [Example 42, 3,3-Dimethyl-2,5-dioxopyrrolidin-1-yl 4-(bis(4-chlorophenyl)methyl)piperazine-1-carboxylate]
100 to 1000 | > 10000 | 100 to 1000 | CCCC1CC(=O)N(OC(=O)N2CCN(C(c3ccc(Cl)cc3)c3ccc(Cl)cc3)CC2)C1=O (stereo not drawn) [Example 43, 2,5-Dioxo-3-propylpyrrolidin-1-yl 4-(bis(4-chlorophenyl)methyl)piperazine-1-carboxylate]
1000 to 10000 | > 10000 | 1000 to 10000 | O=C(ON1C(=O)CC(c2ccccc2)C1=O)N1CCN(C(c2ccc(Cl)cc2)c2ccc(Cl)cc2)CC1 (stereo not drawn) [Example 44, 2,5-Dioxo-3-phenylpyrrolidin-1-yl 4-(bis(4-chlorophenyl)methyl)piperazine-1-carboxylate]
1000 to 10000 | > 10000 | 100 to 1000 | O=C(ON1C(=O)C2CCCCC2C1=O)N1CCN(C(c2ccc(Cl)cc2)c2ccc(Cl)cc2)CC1 (stereo not drawn) [Example 45, 1,3-Dioxohexahydro-1H-isoindol-2(3H)-yl 4-(bis(4-chlorophenyl)methyl)piperazine-1-carboxylate]
100 to 1000 | > 10000 | 100 to 1000 | CC(C)C1NC(=O)N(OC(=O)N2CCN(C(c3ccc(Cl)cc3)c3ccc(Cl)cc3)CC2)C1=O (stereo not drawn) [Example 47, 4-Isopropyl-2,5-dioxoimidazolidin-1-yl 4-(bis(4-chlorophenyl)methyl)piperazine-1-carboxylate]
< 100 | < 100 | < 100 | O=C(ON1C(=O)CNC1=O)N1CCC(CCc2ccc(Cl)cc2)CC1 [Example 48, 2,5-Dioxoimidazolidin-1-yl 4-(4-chlorophenethyl)piperidine-1-carboxylate]
